# According to patent publication US8633201B2, “Thienopyrimidines having Mnk1/Mnk2 inhibiting activity for pharmaceutical compositions” (Boehringer Ingelheim International GmbH, priority 2006, dated 2014):
# What was measured:
# db/db mice = experiment: 14-day oral treatment study in db/db mice (body weight, blood glucose, plasma and pancreas parameters); format: in vivo; settings: oral gavage
# Procedure: BKS.Cg-m+/+Lepr^db/J (Charles River Laboratories) male mice (commonly referred to as db/db mice) are deficient in the […] due a spontaneous point mutation. They are maintained on the C57BL6/J strain.
# Mice are housed four by cage at a temperature of 22-24° C. and a day/night cycle of […] (05:00-19:00-05:00), and obtain standard chow and tap water ad libitum. Mice are allowed to adapt to housing and environment for 14 days prior to substance administration.
# Compound suspensions in 0.3% Methylcellulose in saline are prepared freshly just prior to administration.
# Substances will be administered by oral gavage in the morning at 07:00, one hour before determining fed blood glucose levels and body weight. In the evening, substance is administered between 17:00 and 18:00. Animals are visually monitored for 1 hour after the administrations.
# Dosing is chosen based on the results of pharmacokinetic (PK) and dose tolerability studies. […]
# Animals are being supplied one week in advance to allow for adaptation to housing and environment. During that time, body weight and fed blood glucose are measured daily. […]
# Bodyweight and bloodglucose were measured three times a week. At the end of the study pancreatic insulin content and plasma parameters were determined.
# [1] = tested on: cell culture cells, transfected with Mnk2 (Mnk2a or Mnk2b) or Mnk1; settings: addition to cell culture cells transfected with Mnk2 (Mnk2a or Mnk2b) or Mnk1; cited from earlier work
smiles,measurement,setting,value
"NC(=O)c1ccc(Nc2ncnc3ccsc23)c(OC2CCOC2)c1 (stereo not drawn) [Compound 15, 3-(Tetrahydrofuran-3-yloxy)-4-(thieno[3,2-d]pyrimidin-4-ylamino)-benzamide]",random fed blood glucose,"db/db mice; during the 14 day study, FIG. 2",progressive improvement
Nc1ncnc2n[nH]c(Nc3ccc(F)cc3)c12 [CGP57380],phosphorylated eIF4E,[1],strong reduction
CN(CCOc1ccc(CC2SC(=O)NC2=O)cc1)c1ccccn1 (stereo not drawn) [Rosiglitazone],body weight compared to vehicle,"db/db mice; d1 to d14, FIG. 1",significant increased in body weight
